Laboratory results reported in the NIST ThermoML archive (doi:10.1021/je060269j).
“And” between values parts separate entries of the source, which are not always exact repeats. Equal values may be shown once.

Details: Liquid, Flow apparatus with low residence time

CC(=O)OC(C)(C)C [1,1-dimethylethyl ethanoate]
Details	Critical pressure [kPa]	Critical temperature [K]	vapor or sublimation pressure [kPa]
–	3040	541.2	–
472.7 K	–	–	1053
495 K	–	–	1527
514.5 K	–	–	2074
533.7 K	–	–	2722
535.7 K	–	–	2802
535.9 K	–	–	2801
536.4 K	–	–	2835
537.3 K	–	–	2868
537.7 K	–	–	2903
538.6 K	–	–	2949

CC(O)CCO (stereo not given) [1,3-butanediol]
Details	Critical pressure [kPa]	Critical temperature [K]	vapor or sublimation pressure [kPa]
–	5180	692.4	–
481.4 K	–	–	100.2
508.1 K	–	–	209.6
537.8 K	–	–	418.5
576 K	–	–	898.4
614.7 K	–	–	1719
646.7 K	–	–	2774
662.5 K	–	–	3462
676.7 K	–	–	4158
688.2 K	–	–	4840

c1cocn1 [1,3-oxazole]
Details	Critical pressure [kPa]	Critical temperature [K]	vapor or sublimation pressure [kPa]
–	6770	550.8	–
479 K	–	–	2424
494.6 K	–	–	3116
514.9 K	–	–	4146
535.5 K	–	–	5523
547.4 K	–	–	6492

CC(C)c1ccc(C(C)C)cc1 [1,4-diisopropylbenzene]
Details	Critical pressure [kPa]	Critical temperature [K]	vapor or sublimation pressure
–	2360	676.2	–
518 K	–	–	217.1 kPa
552.6 K	–	–	416.3 kPa
596.8 K	–	–	837.8 kPa
648.1 K	–	–	1669 kPa and 1667 kPa
666.2 K	–	–	2078 kPa
672.3 K	–	–	2258 kPa
675.9 K	–	–	2325 kPa

CC1(C)CO1 [2,2-dimethyloxirane]
Details	Critical pressure [kPa]	Critical temperature [K]	vapor or sublimation pressure [kPa]
–	4350	499.9	–
320.1 K	–	–	87.08
339.1 K	–	–	165.1
365.6 K	–	–	348.9
393.2 K	–	–	678.4
428.2 K	–	–	1381
469.4 K	–	–	2760
496.4 K	–	–	4141
499.2 K	–	–	4306

CSSC [2,3-dithiabutane]
Details	Critical pressure [kPa]	Critical temperature [K]	vapor or sublimation pressure [kPa]
–	5070	607.8	–
466.3 K	–	–	690
500.8 K	–	–	1244
533.1 K	–	–	2002
561 K	–	–	2897
591.4 K	–	–	4205
604.8 K	–	–	4902
607.2 K	–	–	5037

NCCOCCO [2-(2-aminoethoxy)ethanol]
Details	Critical pressure [kPa]	Critical temperature [K]	vapor or sublimation pressure [kPa]
–	4800	721.2	–
500.9 K	–	–	117.3
526.9 K	–	–	225.2
564.9 K	–	–	496.6
594.2 K	–	–	842.6
625.9 K	–	–	1395
653.9 K	–	–	2085
685 K	–	–	3130
716.5 K	–	–	4521
719.4 K	–	–	4729

OCCCOCCCO [4-oxa-1,7-heptanediol]
Details	Critical pressure [kPa]	Critical temperature [K]	vapor or sublimation pressure [kPa]
–	3380	705.2	–
505 K	–	–	100.7
534.3 K	–	–	208.2
564.2 K	–	–	395.8
607.2 K	–	–	854.3
649.8 K	–	–	1631
689.9 K	–	–	2779
699.1 K	–	–	3123
703.4 K	–	–	3296

CCCCSSCCCC [5,6-dithiadecane]
Details	vapor or sublimation pressure [kPa]
504.2 K	90.32
535.7 K	180.3
571.7 K	349.6
614.9 K	695.7

O=CN1CCOCC1 [N-formylmorpholine]
Details	Critical pressure [kPa]	Critical temperature [K]	vapor or sublimation pressure [kPa]
–	5080	779.3	–
507.5 K	–	–	91.7
538 K	–	–	174.8
573.2 K	–	–	343.4
614.6 K	–	–	688.1
663.6 K	–	–	1379
664.7 K	–	–	1382
723.7 K	–	–	2761
745.2 K	–	–	3447
762.7 K	–	–	4137
775.2 K	–	–	4826
777.7 K	–	–	4999

CN(CCO)CCO [N-methyldiethanolamine]
Details	Critical pressure [kPa]	Critical temperature [K]	vapor or sublimation pressure [kPa]
–	4160	741.9	–
519.7 K	–	–	98.59
543.3 K	–	–	175.1
574.8 K	–	–	346.1
617.1 K	–	–	743.9
657.1 K	–	–	1389
707.5 K	–	–	2785
728.1 K	–	–	3475
735.4 K	–	–	3799
738.4 K	–	–	3985

C=CC(=O)OCCCC [butyl 2-propenoate]
Details	Critical pressure [kPa]	Critical temperature [K]	vapor or sublimation pressure [kPa]
–	2840	601.2	–
441.9 K	–	–	178.6
471.9 K	–	–	351.6
506.5 K	–	–	689.5
549.3 K	–	–	1380
599.1 K	–	–	2761

CCOC(=O)C(=O)OCC [diethyl ethanedioate]
Details	Critical pressure [kPa]	Critical temperature [K]	vapor or sublimation pressure [kPa]
–	3060	645.8	–
454.6 K	–	–	90.67
481.8 K	–	–	182.4
512.9 K	–	–	359.9
547.3 K	–	–	690.9
590.1 K	–	–	1381
638.8 K	–	–	2761
642.5 K	–	–	2934
644.4 K	–	–	3013

CC(=O)OC(C)OC(C)=O [ethylidene diethanoate]
Details	Critical pressure [kPa]	Critical temperature [K]	vapor or sublimation pressure [kPa]
–	2970	618.2	–
461.6 K	–	–	177.6
486.4 K	–	–	314.3
514.2 K	–	–	555.5
541.2 K	–	–	902.2
571.5 K	–	–	1457
601.1 K	–	–	2286
608.2 K	–	–	2561
612 K	–	–	2697

O=C=Nc1ccccc1 [phenyl isocyanate]
Details	Critical pressure [kPa]	Critical temperature [K]	vapor or sublimation pressure [kPa]
–	4000	656.9	–
479.7 K	–	–	278.9
553.2 K	–	–	1038
588.3 K	–	–	1724
618.6 K	–	–	2551
653 K	–	–	3795
653.1 K	–	–	3793

O=S1(=O)CCCC1 [sulfolane]
Details	vapor or sublimation pressure [kPa]
560.2 K	103.6
594.4 K	203.9
626.3 K	350.2
656.3 K	556.8
685.1 K	829.2
713.2 K	1181
742 K	1665
773.4 K	2363
802.7 K	3185
829 K	4144

O=C1CCCO1 [γ-butyrolactone]
Details	Critical pressure [kPa]	Critical temperature [K]	vapor or sublimation pressure [kPa]
–	5100	732.5	–
474.9 K	–	–	93.29
501.8 K	–	–	174.7
532.5 K	–	–	325.8
562.6 K	–	–	558.5
600 K	–	–	1005
639 K	–	–	1723
673.8 K	–	–	2643
696.7 K	–	–	3454
713.8 K	–	–	4147
726.8 K	–	–	4779
730.8 K	–	–	5013
